# Several values for one entry are separate records, joined by “and”; a condition that tells them apart may be missing. Equal entries are not always repeated.
# What was measured:
# [1] = system: VEGF-induced angiogenesis in chicken chorioallantoic membrane (CAM); assay: CAM analysis of VEGF-induced angiogenesis; type: in vivo; details: for inhibition in vivo at 0.01 nmol/CAM: Gallus gallus, 72 h, VEGF (20 ng/CAM) + Compound (0.01 nmol/CAM), number of blood vessels after 3 days, read-out: Inhibitory rates (%)
# Protocol: To confirm inhibitory effects on angiogenesis through in vivo experiments, the chorioallantoic membrane (CAM) analysis was carried out (refer to Nguyen M et al., Microvascular Res., 47, pp 31-40, 1994). A fertilized egg of a chicken was cultured in conditions maintaining a temperature of 37° C. and relative humidity of 55%. On the 10th day of the culturing, a first small hole was made on an air sac part using a hypodermic needle (Green Cross Medical Corp., Korea), and then, a second hole was made on a flat part of the fertilized egg to make a window thereon. Air was removed through the first hole, i.e., the air sac part, and accordingly, the CAM was separated from the shell of the fertilized egg. Then, a grinding wheel (Multipro 395JA, Dremel, Mexico) was used to cut the air sac part, thereby making a window thereon. Next, the whatman filter disk #1 (Whatman Company, USA) was treated with 3 mg/mL of cortisone acetate, dried, and then, wet by VEGF at a concentration of 20 ng/CAM. The filter disk was placed on blood vessels through the window, and then, compounds prepared according to Examples above were each dissolved in DMSO, diluted with PBS, and then, treated for each concentration. After 3 days of treating the compounds, the CAM part on which the filter disk was placed was isolated, and then, washed with PBS. The Stemi SV6 stereomicroscope (Carl Zeiss, Germany) and the Image-Pro Plus software (Media Cybernetics; Silver Spring, Md., USA) were used to capture images of the CAM part, so as to measure the number of the blood vessels and to analyze data obtained therefrom.
# [2] = system: HT-29 cells / U937 cells; assay: TNF-α-induced adhesion of HT-29 intestinal epithelial cells and U937 mononuclear cells; type: cell-based, human; details: Homo sapiens, TNF-α 10 ng/ml, read-out: Inhibitory rates (%); for inhibition at 1 µM: pre-treated 1 hour
# How it was run: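 HT-29 cells were pretreated with compound for 1 h in serum-free medium, then stimulated with TNF-α 10 ng/ml for 3 h at 37 °C. BCECF-AM-labelled U937 cells were co-incubated for 1 h at 37 °C. Non-adherent cells were washed off, and lysates in 0.1% Triton X-100/0.1 M Tris were read by fluorescence.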
# [3] = system: TNBS-induced colitis; assay: TNBS-induced colitis model of inflammatory bowel disease; type: in vivo, rat (Sprague Dawley); details: for changes in weights of the rat / conditions of the large intestine observed with the naked eye: TNBS-induced rats; for weight of the large intestine: vs TNBS-treated group
# Source text: To see alleviating effects of the compounds of the present invention on colitis, an animal model induced by TNBS and having colitis was used for the experiments. The animal used herein was a 7 to 8 week Sprague Dawley species purchased from Samtaco Bio Korea. After the purchase, the animal was stabilized with typical solid feed for 2 days before being used for the experiments. The animal was freely supplied with feed and water during the experiments, and stayed in conditions maintaining a cage temperature of about 25±1° C. and relative humidity of about 50±10%. The cage was equipped with an automatic lightening system to adjust 12-hour light-dark cycle.
# In regard to the experimental groups, 5 groups (i.e., a control group, a group administered with TNBS only, […], […], […]) were used according to the randomized block design, wherein each group consists of 6 rats having an average weight of about 180±10 g. The rats that had been fasting for 24 hours were anesthetized with diethylether (Et2O), and then, a 1 mL syringe connected with a polyethylene catheter was used to slowly inject 0.8 mL of 3% TNBS into colonic enema through the anus, wherein TNBS was diluted with 50% (v/v) ethanol. To prevent leakage of 3% TNBS from the anus, the rats turned upside down and let stand for 60 minutes.
# In regard to the control group, only a vehicle (50% (v/v) ethanol) was injected into the rats of the control group in the same manner as in preparation of other experimental groups. To examine the effects of the drug, after being fasting for 24 hours, the rats were administered with drugs, i.e., 0.1 mg/kg or 1.0 mg/kg of Compounds 8a and 8j, once a day at a certain time from the second day to the fifth day of the TNBS treatment. As a comparative experimental material, 5-ASA, which is an active metabolite of sulfasalazine that is the most well-known as a therapeutic agent for IBDs, was used as a positive control group.
# All the rats were scarified on the seventh day of the TNBS administration. […] After the large intestine of the rat was harvested, a 5 to 6 cm-long tissue from was cut from the anus to a size of 1 cm, and then, subjected to measure an intestine weight and activation of myeloperoxidase (MPO) in the tissue, and to perform a biopsy. In addition, changes in weight of all the animals used in the experiments were observed by using a digital mass meter, beginning from the fasting step, the TNBS administration, and the drug administration. In consideration of the management and use of laboratory animals, the animal experiments were followed according to institutional guidelines from Laboratory Animal Resources, Yeungnam University.
# To measure the activation of MPO, an MPO assay was used. The colorectal tissue was washed with cold PBS, and a weight thereof was measured. Then, 200 μL of lysis buffer (pH7.4, 200 mM NaCl, 5 mM EDTA, 10 mM Tris, 10% glycerol) was added for each 10 mg of the weight of the tissue, and then, the tissue homogenizer (Bio homogenizer M133, BIOSPEC PRODUCTS Inc. USA) was used for 30 seconds in terms of homogenization. The homogenized sample was subjected to centrifugation (1500×g) twice, each for 15 minutes. The supernatant obtained therefrom was used to measure the activation of MPO by using the MPO ELISA kit (HK210, Hycult Biotechnology, Netherlands). 100 μL of the supernatant was added to the 96-well plates, each of which well was coated with an anti-mouse MPO antibody, to allow a reaction at room temperature for 1 hour, followed by being washed with PBS three times. Here, 100 μL of a reconstituted tracer was added thereto to allow a reaction at room temperature for 1 hour, followed by being washed three times repeatedly. Then, 100 μL of a reptavidin-peroxidase conjugate was added thereto to allow a reaction at room temperature for 1 hours, followed being washed. Then, 100 μL of a TMB substrate solution was added thereto to allow a reaction for 30 minutes. […]
# [4] = system: cathepsin S; assay: RT-PCR of cathepsin S gene expression in MDA-MB-231 cells; type: cell-based; details: Homo sapiens, MDA-MB-231, 24 h, screening, 1 μM of each compound; MDA-MB-231, RT-PCR; read-out: Inhibition rate of expression of cathepsin S (%)
# Protocol: Each compound of the present invention was treated with breast cancer cells (1×10^5 cell/cm^2), e.g., MDA-MB-231, and then, cultured at a temperature of 37° C. for 24 hours in a cell incubator. Afterwards, a trizole reagent was used to extract the entire mRNA therefrom. 24 hours later, the culture medium was removed therefrom, 1 mL of the triazole reagent was added to each well, and then, the cell elusion was transferred to a 1.5 mL tube. After 200 μl of chloroform was added to each sample, the samples were subjected to centrifugation at a temperature of 4° C., at 12,000 g, for 15 minutes. 500 μl of the supernatant obtained therefrom was transferred to a new tube. After 500 μl of isopropylalcohol was added to each sample, the samples were subjected to centrifugation at a temperature of 4° C., at 12,000 g, for 15 minutes. The supernatant obtained therefrom was removed from each sample, and then, the samples were washed with 75% ethanol to clean mRNA while the precipitants were dried. Then, mRNA extracted therefrom was dissolved in RNase-free water, followed by being heated at a temperature of 55° C. for 10 minutes.
# After the RNA quantification, the GoScript™ reverse transcription system (Promega Corporation, Madison, Wis., USA) was used to synthesize cDNA. Here, PCR was performed by using TaKaRa Taq™ (Takara bio Inc., Shiga, Japan), wherein a primer set of cathepsin S consists of a forward primer having SEQ ID NO: 1 (forward sequence: 5′-GCAGTGGCACAGTTGCATAA-3′) and a reverse primer having SEQ ID NO: 2 (reverse sequence: 5′-AGCACCACAAGAACCCATGT-3′). After the PCR product was subjected to agarose gel electrophoresis, the PCR product was stained with ethidium bromide (0.5 μg/ml), thereby obtaining images thereof by using the gel imaging system (UVP, Cambridge, UK). Here, the PCR product was quantified based on glyceraldehyde 3-phosphate dehydrogenase (GAPDH). A GAPDH primer used herein consists of a forward primer having SEQ ID NO: 3 (forward sequence: 5′-GGTGAAGGTCGGAGTCAACG-3′) and a reverse primer having SEQ ID NO: 4 (reverse sequence: 5′-CAAAGTTGTCATGGATGACC-3′).
# Furthermore, to screen other amidopyridinol derivatives that inhibit metastasis of breast cancer cells, inhibitory effects on expression of cathepsin S genes were reviewed by treating 1 μM of each compound, in the same manner as in Experimental Example 9.
# [5] = system: A549 lung cancer cells; assay: CAM inoculated with A549 lung cancer cells: angiogenesis and tumor growth; type: in vivo, chicken; details: for Inhibition rates of angiogenesis (%) / Inhibition rates of tumor growth (%): A549 on CAM, 5 days
# Protocol: To confirm inhibitory effects on angiogenesis through in vivo experiments, the CAM analysis was carried out (refer to Nguyen M et al., Microvascular Res., 47, pp 31-40, 1994). A fertilized egg of a chicken was cultured in conditions maintaining a temperature of 37° C. and relative humidity of 55%. On the 9th day of the culturing, a first small hole was made on an air sac part using a hypodermic needle (Green Cross Medical Corp., Korea), and then, a second hole was made on a flat part of the fertilized egg to make a window thereon. Air was removed through the first hole, i.e., the air sac part, and accordingly, the CAM was separated from the shell of the fertilized egg. Then, a grinding wheel (Multipro 395JA, Dremel, Mexico) was used to cut the air sac part, thereby making a window thereon. Meanwhile, A549 lung cancer cells were mixed with matrigel at a ratio of 1:1, and then, the mixture was treated with Compounds 8a, 8b, and 8g, respectively, followed by being inoculated at a density of 1.5×10^6 cells/CAM.
# After 5 days of the inoculation, the CAM part on which tumors were formed was isolated, and then, washed with PBS. The Stemi SV6 stereomicroscope (Carl Zeiss, Germany) and the Image-Pro Plus software (Media Cybernetics; Silver Spring, Md., USA) were used to capture images of the CAM part, so as to measure the number of the blood vessels and to analyze data obtained therefrom.
smiles,measurement,setting,value
"Cc1nc(NC(=O)CCc2ccccc2)c(C)c(C)c1O [Compound 8j, N-(5-hydroxy-3,4,6-trimethylpyridine-2-yl)-3-phenylpropanamide]",inhibition in vivo at 0.01 nmol/CAM,[1],74.2 ± 3.9%
same,inhibition at 1 µM,[2],72.5%
same,changes in weights of the rat,[3]; 1.0 mg/kg once a day,significant weight recovery and increased weight
same,conditions of the large intestine observed with the naked eye,[3]; 1.0 mg/kg,excellent inhibitory effects on swelling and congestion
same,weight of the large intestine,[3]; 1.0 mg/kg,significantly decreased
"Cc1nc(NC(=O)C2CCCC2)c(C)c(C)c1O [Compound 8g, N-(5-hydroxy-3,4,6-trimethylpyridine-2-yl)cyclopentane carboxamide]",inhibition at 1 µM,[4],≥ 50%
same,inhibition in vivo at 0.01 nmol/CAM,[1],81.8 ± 8.4%
same,ID50 against inhibition of angiogenesis,[1]; VEGF-induced CAM angiogenesis,0.9 pg/CAM and 3.6 fmol/CAM
same,Inhibition rates of angiogenesis (%),[5]; 0.001 pmol/CAM,30.9 ± 8.5 %
same,Inhibition rates of tumor growth (%),[5]; 0.001 pmol/CAM,13.2 ± 3.5%
same,Inhibition rates of angiogenesis (%),[5]; 0.01 pmol/CAM,48.4 ± 4.1 %
same,Inhibition rates of tumor growth (%),[5]; 0.01 pmol/CAM,24.0 ± 1.6 %
same,Inhibition rates of angiogenesis (%),[5]; 0.1 pmol/CAM,54.4 ± 6.7 %
same,Inhibition rates of tumor growth (%),[5]; 0.1 pmol/CAM,45.1 ± 3.1 %
same,Inhibition rates of angiogenesis (%),[5]; 1.0 pmol/CAM,58.1 ± 6.8 %
same,Inhibition rates of tumor growth (%),[5]; 1.0 pmol/CAM,62.7 ± 2.3 %
same,inhibitory effects on angiogenesis and tumor growth (in words),[5]; at each density,"inhibited angiogenesis upon tumorigenesis, as well as tumor growth"
same,inhibition at 1 µM,[2],42.8%
"Nc1ccc(O)c(C(=O)O)c1 [Compound 5-ASA, 5-aminosalicylic acid, reference compound]",inhibition at 20000 µM,[2]; 20 mM,46.8%
same,activation of myeloperoxidase (MPO) in colorectal tissue,[3]; 100 mg/kg,significantly decreased activation of MPO
same,conditions of the large intestine observed with the naked eye,[3]; 100 mg/kg,significantly inhibited
same,weight of the large intestine,[3]; 100 mg/kg,significantly decreased
same,changes in weights of the rat,[3]; 300 mg/kg,slowly recovered on the third day

# — patent US9802897B2, “Amidopyridinol derivative or pharmaceutically acceptable salt thereof and pharmaceutical composition comprising same as active component” (Research Cooperation Foundation of Yeungnam University, priority 2013, dated 2017)
